Measured values published in paper PMC5812785 (Nature chemical biology, 2018).

What was measured:
[1] = biological target: ccvTIR1 (TIR1^F79G) (Arabidopsis thaliana, UniProt Q38825+Q570C0, Q570C0:F79G); type: binding
[2] = biological target: TIR1 (Arabidopsis thaliana, UniProt Q38825+Q570C0); type: binding
Sequence of TIR1 (Q570C0 whole entry, other chains not shown): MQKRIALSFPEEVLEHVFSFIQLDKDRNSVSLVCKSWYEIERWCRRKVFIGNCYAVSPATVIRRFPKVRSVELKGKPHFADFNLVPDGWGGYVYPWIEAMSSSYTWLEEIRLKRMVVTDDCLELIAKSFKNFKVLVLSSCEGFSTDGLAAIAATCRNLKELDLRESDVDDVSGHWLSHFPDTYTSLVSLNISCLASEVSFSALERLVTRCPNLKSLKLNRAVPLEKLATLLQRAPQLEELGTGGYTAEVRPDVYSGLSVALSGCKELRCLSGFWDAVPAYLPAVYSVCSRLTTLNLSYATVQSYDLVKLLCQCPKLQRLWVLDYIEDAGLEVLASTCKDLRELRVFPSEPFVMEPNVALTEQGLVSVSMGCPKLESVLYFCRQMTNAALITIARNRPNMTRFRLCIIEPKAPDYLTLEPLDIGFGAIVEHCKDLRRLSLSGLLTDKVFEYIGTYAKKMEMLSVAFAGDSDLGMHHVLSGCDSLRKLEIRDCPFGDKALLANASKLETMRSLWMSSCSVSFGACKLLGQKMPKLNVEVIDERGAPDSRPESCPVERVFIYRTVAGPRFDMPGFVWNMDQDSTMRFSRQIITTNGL

Sequence of ccvTIR1 (TIR1^F79G) (Q570C0 whole entry F79G, other chains not shown): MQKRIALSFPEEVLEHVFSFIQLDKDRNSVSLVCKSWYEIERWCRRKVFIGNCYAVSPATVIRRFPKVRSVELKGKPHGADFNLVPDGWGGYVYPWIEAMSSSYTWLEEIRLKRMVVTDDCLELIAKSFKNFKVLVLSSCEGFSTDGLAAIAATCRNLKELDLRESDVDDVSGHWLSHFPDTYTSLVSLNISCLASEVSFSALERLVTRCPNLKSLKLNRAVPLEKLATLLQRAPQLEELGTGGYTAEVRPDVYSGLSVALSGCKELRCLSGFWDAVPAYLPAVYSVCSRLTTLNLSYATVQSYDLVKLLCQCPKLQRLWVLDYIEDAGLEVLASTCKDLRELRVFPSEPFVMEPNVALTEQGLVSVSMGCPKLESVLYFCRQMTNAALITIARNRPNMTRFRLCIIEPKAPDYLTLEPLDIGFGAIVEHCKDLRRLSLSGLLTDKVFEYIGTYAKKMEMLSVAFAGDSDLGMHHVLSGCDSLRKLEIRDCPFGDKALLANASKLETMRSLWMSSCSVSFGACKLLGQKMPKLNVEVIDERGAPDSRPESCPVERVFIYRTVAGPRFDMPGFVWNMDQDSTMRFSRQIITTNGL

EC50 [2] [µM] | SMILES | EC50 [1] [µM]
– | COc1cccc(-c2ccc3[nH]cc(CC(=O)O)c3c2)c1 [compound 1, 5-(3-methoxyphenyl)indole-3-acetic acid] | 3.98 ± 0.6
11.5 ± 1.23 | O=C(O)Cc1c[nH]c2ccccc12 [IAA, indole-3-acetic acid] | –
